Measured values published in PubChem BioAssay AID1259407 (Chemical Carcinogenesis Research Information System (CCRIS), 2018).
The source made the active and inactive calls. How the calls were made is not given here.

System: CCRIS mutagenicity, Ames/micronucleus/aberration tests
Assay: CCRIS mutagenicity studies
[1] = Test System: AMES SALMONELLA TYPHIMURIUM, Strain/Indicator: TA100, Metabolic Activation: NONE, Method: PREINCUBATION
[2] = Test System: AMES SALMONELLA TYPHIMURIUM, Strain/Indicator: TA98, Metabolic Activation: NONE, Method: STANDARD PLATE
[3] = Test System: AMES SALMONELLA TYPHIMURIUM, Strain/Indicator: TA100, Metabolic Activation: NONE, Method: STANDARD PLATE

Measured: mutagenic call

CC(=O)c1cc(NC(=O)Nc2ccc(OCC(O)CNC(C)(C)C)c(C(C)=O)c2)ccc1OCC(O)CNC(C)(C)C (stereo unspecified)
inactive: Test System: AMES SALMONELLA TYPHIMURIUM, Strain/Indicator: TA98, Metabolic Activation: NONE, Method: PREINCUBATION inactive; negative | Test System: AMES SALMONELLA TYPHIMURIUM, Strain/Indicator: TA98, Metabolic Activation: RAT, LIVER, S-9, PHENOBARBITAL AND 5,6-BENZOFLAVONE (10 OR 50 µL/PLATE), Method: PREINCUBATION inactive; negative | [1] inactive; negative | Test System: AMES SALMONELLA TYPHIMURIUM, Strain/Indicator: TA100, Metabolic Activation: RAT, LIVER, S-9, PHENOBARBITAL AND 5,6-BENZOFLAVONE (10 OR 50 µL/PLATE), Method: PREINCUBATION inactive; negative | Test System: AMES SALMONELLA TYPHIMURIUM, Strain/Indicator: TA1535, Metabolic Activation: NONE, Method: PREINCUBATION inactive; negative | Test System: AMES SALMONELLA TYPHIMURIUM, Strain/Indicator: TA1537, Metabolic Activation: NONE, Method: PREINCUBATION inactive; negative | Test System: AMES SALMONELLA TYPHIMURIUM, Strain/Indicator: TA1537, Metabolic Activation: RAT, LIVER, S-9, PHENOBARBITAL AND 5,6-BENZOFLAVONE (10 OR 50 µL/PLATE), Method: PREINCUBATION inactive; negative | Test System: E. COLI, Strain/Indicator: WP2 UVRA, Metabolic Activation: NONE, Method: PREINCUBATION inactive; negative | Test System: E. COLI, Strain/Indicator: WP2 UVRA, Metabolic Activation: RAT, LIVER, S-9, PHENOBARBITAL AND 5,6-BENZOFLAVONE (10 OR 50 µL/PLATE), Method: PREINCUBATION inactive; negative

COc1ccc(C(O)(c2cncnc2)C2CC2)cc1 (stereo unspecified)
inactive: Test System: Ames Salmonella typhimurium, Strain/Indicator: TA98, Metabolic Activation: None, Method: Standard Plate inactive; negative | Test System: Ames Salmonella typhimurium, Strain/Indicator: TA98, Metabolic Activation: Rat, liver, S-9, Method: Standard Plate inactive; negative | Test System: Ames Salmonella typhimurium, Strain/Indicator: TA100, Metabolic Activation: None, Method: Standard Plate inactive; negative | Test System: Ames Salmonella typhimurium, Strain/Indicator: TA100, Metabolic Activation: Rat, liver, S-9, Method: Standard Plate inactive; negative | Test System: Ames Salmonella typhimurium, Strain/Indicator: TA1535, Metabolic Activation: None, Method: Standard Plate inactive; negative | Test System: Ames Salmonella typhimurium, Strain/Indicator: TA1535, Metabolic Activation: Rat, liver, S-9, Method: Standard Plate inactive; negative | Test System: Ames Salmonella typhimurium, Strain/Indicator: TA1537, Metabolic Activation: None, Method: Standard Plate inactive; negative | Test System: Ames Salmonella typhimurium, Strain/Indicator: TA1537, Metabolic Activation: Rat, liver, S-9, Method: Standard Plate inactive; negative | Test System: Ames Salmonella typhimurium, Strain/Indicator: TA1538, Metabolic Activation: None, Method: Standard Plate inactive; negative | Test System: Ames Salmonella typhimurium, Strain/Indicator: TA1538, Metabolic Activation: Rat, liver, S-9, Method: Standard Plate inactive; negative | Test System: Mouse lymphoma, Strain/Indicator: L5178Y (TK+/TK-), Metabolic Activation: None, Method: Suspension/Plate inactive; negative | Test System: Mouse lymphoma, Strain/Indicator: L5178Y (TK+/TK-), Metabolic Activation: S-9 of unspecified origin, Method: Suspension/Plate inactive; negative

C[C@H]1CCCC(=O)CCCCCc2cc(O)cc(O)c2C(=O)O1
inactive: [2] inactive; negative | Test System: AMES SALMONELLA TYPHIMURIUM, Strain/Indicator: TA98, Metabolic Activation: RAT, LIVER, S-9, Method: STANDARD PLATE inactive; negative | [3] inactive; negative | Test System: AMES SALMONELLA TYPHIMURIUM, Strain/Indicator: TA100, Metabolic Activation: RAT, LIVER, S-9, Method: STANDARD PLATE inactive; negative | Test System: AMES SALMONELLA TYPHIMURIUM, Strain/Indicator: TA1535, Metabolic Activation: NONE, Method: STANDARD PLATE inactive; negative | Test System: AMES SALMONELLA TYPHIMURIUM, Strain/Indicator: TA1535, Metabolic Activation: RAT, LIVER, S-9, Method: STANDARD PLATE inactive; negative; toxicity at 1000 ug/plate | Test System: AMES SALMONELLA TYPHIMURIUM, Strain/Indicator: TA1537, Metabolic Activation: NONE, Method: STANDARD PLATE inactive; negative | Test System: AMES SALMONELLA TYPHIMURIUM, Strain/Indicator: TA1537, Metabolic Activation: RAT, LIVER, S-9, Method: STANDARD PLATE inactive; negative | Test System: AMES SALMONELLA TYPHIMURIUM, Strain/Indicator: TA1538, Metabolic Activation: NONE, Method: STANDARD PLATE inactive; negative | Test System: AMES SALMONELLA TYPHIMURIUM, Strain/Indicator: TA1538, Metabolic Activation: RAT, LIVER, S-9, Method: STANDARD PLATE inactive; negative

CCCCN(C[C@H](CO)Cc1ccccc1)N=O
inactive: [1] inactive; negative
active: Test System: AMES SALMONELLA TYPHIMURIUM, Strain/Indicator: TA100, Metabolic Activation: RAT, LIVER, S-9, PCB, Method: PREINCUBATION active; positive

CNP1(NC)=NP(NC)(NC)=NP(NC)(NC)=N1
inactive: [2] inactive; negative | Test System: AMES SALMONELLA TYPHIMURIUM, Strain/Indicator: TA98, Metabolic Activation: RAT, LIVER, S-9, AROCLOR 1254, Method: STANDARD PLATE inactive; negative | [3] inactive; negative | Test System: AMES SALMONELLA TYPHIMURIUM, Strain/Indicator: TA100, Metabolic Activation: RAT, LIVER, S-9, AROCLOR 1254, Method: STANDARD PLATE inactive; negative

Nc1cc(Cl)c(N)c(Cl)c1
active: End Point: IN VITRO CHROMOSOMAL ABERRATIONS, Test System: CHO CELLS, Metabolic Activation: NONE active; positive; weak response

C[C@@](Cc1ccc(O)c(O)c1)(NN)C(=O)O
inactive: Test System: UDS RAT HEPATOCYTES, Strain/Indicator: THY INCORP, Metabolic Activation: NONE, Method: AUTORADIOGRAPHY inactive; negative
active: [3] active; positive | Test System: AMES SALMONELLA TYPHIMURIUM, Strain/Indicator: TA100, Metabolic Activation: RAT, LIVER, S-9, PHENOBARBITAL, Method: STANDARD PLATE active; positive
